Test results published in publication PMC4604124, “In Vitro Characterization of the Pharmacological Properties of the Anti-Cancer Chelator, Bp4eT, and Its Phase I Metabolites” (PLoS ONE, 2015).
“And” between values parts separate entries of the source, which are not always exact repeats. Identical values can stand only once.

Columns and labels:
H9c2 cardiomyoblasts = experiment: MTT cytotoxicity assay, H9c2 cells; format: cell-based, rat; conditions: H9c2, 72 h/37°C, MTT; mean ± SD, n ≥ 4; read-out: IC50
Description: (§1) For cytotoxicity experiments, cancer cells were seeded at a density of 5,000 (MCF-7), 10,000 (HL-60) or 2,000 cells/well (HCT116 and A549) in 96-well plates (TPP) for 24 h/37°C prior to the addition of examined agents. The non-cancerous cells, 3T3 and H9c2 cells, were cultured for 24 h/37°C in 96-well plates at a density of 10,000 cells/well, the medium was then changed to serum- and pyruvate-free DMEM (Sigma-Aldrich) and incubated with the cells for another 24 h/37°C. The cytotoxic effects of Bp4eT and its metabolites were studied at different concentrations after a 72 h/37°C incubation. In order to aid the dissolution of the lipophilic ligands, 0.1% dimethyl sulfoxide (v/v) (DMSO; Sigma-Aldrich) was present in the culture medium of all groups. At this concentration, DMSO had no effect on cellular proliferation or viability.
(§2) The viability of cells were determined using an MTT assay (Sigma-Aldrich) according to previously established methods. The optical density of soluble MTT was measured at λ = 570 nm, subtracting the λ = 690 nm background using a Tecan Infinite 200M plate reader (Tecan Group, Männedorf, Switzerland). The viability or proliferation of experimental groups was expressed as a percentage of the untreated controls (100%).
(§3) SigmaStat for Windows 3.5 (Systat Software, San Jose, CA, USA) statistical software package was utilized to analyze results. The data are expressed as the mean ± SD of a given number of experiments. Statistical significance was determined using a one-way ANOVA with a Bonferroni post-hoc test or Student’s t-test. The results were considered to be statistically significant when p < 0.05. The IC50 values were calculated using CalcuSyn 2.0 software (Biosoft, Cambridge, UK). Cell cycle analysis was evaluated using MultiCycle AV Software (Phoenix Flow Systems, San Diego, CA, USA).

[1] = system: 3T3 mouse embryo fibroblasts; experiment: MTT cytotoxicity assay, 3T3 cells; format: cell-based; conditions: Mus musculus, Fibroblast, 72 h, 3T3, 72 h; read-out: IC50
Description: as §1, §2, §3

[2] = system: cancer cells (HL-60, MCF-7, HCT116, A549) and non-cancerous cells (H9c2, 3T3); experiment: MTT cytotoxicity assay, summary over the cell line panel; format: cell-based; conditions: HL-60, MCF-7, HCT116, A549; 72 h; read-out: IC50, range over cancer cells
Description: as §1, §2, §3

[3] = system: labile iron pool of MCF-7 cells; experiment: Calcein-AM assay, access to the labile iron pool; format: cell-based, human; conditions: 10 μM, MCF-7, mean of 6 experiments
Description: These experiments were performed according to Glickstein et al. with slight modifications. The MCF-7 cells were seeded in 96-well plates (10,000 cells/well) and allowed to adhere for 24 h/37°C. Cells were loaded with iron using the cellular iron donor, ferric ammonium citrate (530 μg/mL), 24 h prior to the experiment, and then washed. To prevent potential interference, especially with regard to various trace elements, the medium was replaced with ADS buffer (prepared using Millipore water supplemented with 116 mM NaCl, 5.3 mM KCl, 1 mM CaCl2, 1.2 mM MgSO4, 1.13 mM NaH2PO4, 5 mM D-glucose, and 20 mM HEPES, pH 7.4). Cells were then loaded with 2 μM of the cell-permeable calcein green acetoxymethyl ester (calcein-AM; Molecular Probes, Oregon, USA) for 30 min/37°C and washed. Cellular esterases cleave the acetoxymethyl groups to form the cell membrane-impermeable compound, calcein green. The fluorescence of calcein green is quenched upon binding iron. The intracellular fluorescence (λex = 488 nm; λem = 530 nm) of calcein green was then followed as a function of time (10 min after the addition of 10 μM Bp4eT or its metabolites) at 37°C using the Tecan Infinite 200M plate reader. The iron chelation efficacy of the metabolites in cells was expressed as a percentage of the efficacy of the parent chelator, Bp4eT (100%).

MCF-7 cells = experiment: Cellular 59Fe uptake from 59Fe2-transferrin; format: cell-based, human; conditions: 25 μM, 3 h/37°C, MCF-7, 0.75 μM 59Fe2-Tf
Excerpt: Human transferrin (Sigma) was labeled with ^56Fe or ^59Fe (PerkinElmer, Massachusetts, USA) to produce ^56Fe2-transferrin or ^59Fe2-transferrin (^59Fe2-Tf), respectively, with a final specific activity of 500 pCi/pmol Fe, as previously described. Unbound ^59Fe was removed by exhaustive vacuum dialysis against a large excess of 0.15 M NaCl buffered to pH 7.4 with 1.4% NaHCO3 by standard methods.
The ability of the chelators to prevent cellular ^59Fe uptake from ^59Fe2-transferrin was examined using standard techniques. In brief, confluent MCF-7 cells in 6-well plates were incubated with 0.75 μM ^59Fe2-Tf for 3 h/37°C in the presence of Bp4eT or its metabolites (25 μM). The cells were then washed four times with ice-cold PBS and the level of internalized ^59Fe was determined by incubating the cell monolayer for 30 min/4°C with the general protease, Pronase (1 mg/mL; Sigma-Aldrich). The cells were then removed from the monolayer with a plastic spatula on ice and centrifuged for 1 min/12,000 x g/4°C. The supernatant represents membrane-bound, Pronase-sensitive ^59Fe that was released by the protease, while the Pronase-insensitive fraction represents internalized ^59Fe. The amount of internalized ^59Fe was expressed as a percentage of ^59Fe internalized by control (untreated) cells.

[4] = parameters: method as in PMID 24254882; conditions: E and Z isomers, after Bp4eT; cited from earlier work
[5] = Ascorbate oxidation assay (redox activity of iron complexes); format: biochemical; conditions: for %Fe 30min: ascorbate oxidation as % of the Fe control (Fe 100%): IBE 0.1, 30 min;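 as to %Fe 30min (ascorbate oxidation, Fe 100%), průměr: IBE 3 means excess free chelator over iron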;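 as to %Fe 30min (ascorbate oxidation, Fe 100%): IBE 3 means excess free chelator over iron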;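 as to %Fe 30min: ascorbate oxidation as % of the Fe control (Fe 100%): IBE 0.1 means iron-binding equivalents with iron in excess over chelator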;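 as to Change of absorbance, odečet 0 (time 0 subtracted), čas 10, průměr: IBE 3 means excess free chelator over 10 µM FeCl3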;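 as to Change of absorbance, odečet 0 (time 0 subtracted), čas 10: IBE 3 means excess free chelator over 10 µM FeCl3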
Description: The ascorbate oxidation assay was used to assess the redox activity of the iron complexes of the chelators using an established protocol. In brief, 100 μM ascorbic acid was prepared immediately prior to the experiment and incubated either alone or in the presence of 10 μM FeCl3 in a 50-fold molar excess (500 μM) of citrate and the chelators. Chelators were assayed at iron-binding equivalents (IBE) of 0.1 (excess of iron), 1 (fully coordinated iron—chelator complexes) and 3 (excess of free chelator). […] The decrease of absorbance between the two time points was calculated and expressed as a percentage of control without the chelator.

cancer cells = system: cancer cells; parameters: method as in PMID 17602603, PMID 23074173, PMID 2758414, PMID 20036563; conditions: cited from earlier work
[6] = sheet IBE 1, time 10, replicates
[7] = sheet IBE 1, time 20, replicates
[8] = sheet IBE 1, time 30, replicates

Compound: CCNC(=O)NN=C(c1ccccc1)c1ccccn1 [Bp4eS, 2-benzoylpyridine 4-ethylsemicarbazone]
- IC50 (H9c2 cardiomyoblasts): 343 µM
- IC50 [1]: > 1 mM
- IC50 [2]: 46 to 536 µM
- Chelation efficacy: fluorescence of free calcein at t = 600 s as percentage of Bp4eT [3]: ≤ 1.0%
- Internalized 59Fe uptake, % of the control (MCF-7 cells): comparable to the untreated control
- Concentration in plasma [4]: < 0.02 µM

Compound: CC(=O)N(O)CCCCCNC(=O)CCC(=O)N(O)CCCCCNC(=O)CCC(=O)N(O)CCCCCN [DFO, deferoxamine, reference compound]
- %Fe 30min: ascorbate oxidation as % of the Fe control (Fe 100%) ([5]; mean (průměr)): 95.6%
- %Fe 30min: ascorbate oxidation as % of the Fe control (Fe 100%) ([5]; single wells): 92.32% and 94.84% and 89.62% and 108.6% and 104.8% and 93.48%
- Change of absorbance after subtraction of time 0 (odečet 0) ([5]; IBE 0.1, time 10, mean (průměr)): -0.0289
- Change of absorbance after subtraction of time 0 (odečet 0) ([5]; IBE 0.1, time 20, mean (průměr)): -0.06128
- Change of absorbance after subtraction of time 0 (odečet 0) ([5]; IBE 0.1, time 30, mean (průměr)): -0.09056
- Absorbance (ascorbate, λ = 265 nm) ([5]; IBE 0.1, čas 0 (time 0), mean (průměr)): 0.8374
- Absorbance (ascorbate, λ = 265 nm) ([5]; IBE 0.1, čas 0 (time 0), single wells): 0.8482 and 0.8386 and 0.8297 and 0.8393 and 0.8347 and 0.8423
- Absorbance (ascorbate, λ = 265 nm) ([5]; IBE 0.1, čas 10 (time 10), mean (průměr)): 0.8085
- Absorbance (ascorbate, λ = 265 nm) ([5]; IBE 0.1, čas 10 (time 10), single wells): 0.8014 and 0.8085 and 0.8061 and 0.8115 and 0.8174 and 0.8155
- Absorbance (ascorbate, λ = 265 nm) ([5]; IBE 0.1, čas 20 (time 20), mean (průměr)): 0.7761
- Absorbance (ascorbate, λ = 265 nm) ([5]; IBE 0.1, čas 20 (time 20), single wells): 0.7691 and 0.7765 and 0.7756 and 0.7789 and 0.7837 and 0.7797
- Absorbance (ascorbate, λ = 265 nm) ([5]; IBE 0.1, čas 30 (time 30), mean (průměr)): 0.7468
- Absorbance (ascorbate, λ = 265 nm) ([5]; IBE 0.1, čas 30 (time 30), single wells): 0.7397 and 0.7469 and 0.7473 and 0.7447 and 0.754 and 0.7546
- Ascorbate oxidation, % of the control ([5]; IBE 1): significant (p < 0.001) decrease
- Ascorbate oxidation, % of the control ([5]; IBE 3): significant (p < 0.001) decrease
- %Fe 30min (ascorbate oxidation, Fe = 100%), průměr (mean) ([5]; sheet IBE 1, 30min, Fe 100%, mean): 34.33%
- %Fe 30min (ascorbate oxidation, Fe = 100%), single replicates ([5]; sheet IBE 1, 30min, Fe 100%, replicates): 31.7% and 34.66% and 23.38% and 46.3% and 44.12% and 39.04%
- raw reading at čas 0 (time 0), průměr (mean) ([5]; sheet IBE 1, time 0, mean of 9 readings): 0.8386
- raw reading at čas 0 (time 0), single replicates ([5]; sheet IBE 1, time 0, replicates of 2014-03-24 (two runs) and 2014-03-25): 0.8558 and 0.8596 and 0.828 and 0.8361 and 0.827 and 0.8501
- odečet 0 (reading minus time 0 reading) at čas 10, průměr (mean) ([5]; sheet IBE 1, time 10, mean): -0.01
- raw reading at čas 10 (time 10), průměr (mean) ([5]; sheet IBE 1, time 10, mean of 9 readings): 0.8286
- odečet 0 (reading minus time 0 reading) at čas 10, single replicates [5, 6]: -0.00635 and -0.01167 and -0.00323 and -0.01849 and -0.01895 and -0.01001
- raw reading at čas 10 (time 10), single replicates [5, 6]: 0.8216 and 0.8244 and 0.8238 and 0.8316 and 0.8369 and 0.8496
- odečet 0 (reading minus time 0 reading) at čas 20, průměr (mean) ([5]; sheet IBE 1, time 20, mean): -0.0179
- raw reading at čas 20 (time 20), průměr (mean) ([5]; sheet IBE 1, time 20, mean of 9 readings): 0.8207
- odečet 0 (reading minus time 0 reading) at čas 20, single replicates [5, 7]: -0.01539 and -0.01649 and -0.00893 and -0.03069 and -0.02809 and -0.02068
- raw reading at čas 20 (time 20), single replicates [5, 7]: 0.8126 and 0.8196 and 0.8181 and 0.8194 and 0.8278 and 0.8389
- odečet 0 (reading minus time 0 reading) at čas 30, průměr (mean) ([5]; sheet IBE 1, time 30, mean): -0.0308
- raw reading at čas 30 (time 30), průměr (mean) ([5]; sheet IBE 1, time 30, mean of 9 readings): 0.8078
- odečet 0 (reading minus time 0 reading) at čas 30, single replicates [5, 8]: -0.02739 and -0.02994 and -0.0202 and -0.04369 and -0.04163 and -0.03684
- raw reading at čas 30 (time 30), single replicates [5, 8]: 0.8006 and 0.8061 and 0.8068 and 0.8064 and 0.8142 and 0.8227
- %Fe 30min (ascorbate oxidation, Fe 100%), průměr ([5]; sheet IBE 3, 30min, Fe alone = 100%, mean (průměr) of the 9 replicates): 14.03%
- %Fe 30min (ascorbate oxidation, Fe 100%) ([5]; sheet IBE 3, 30min, Fe alone = 100%, single replicates): 16.83% and 16.2% and 10.25% and 18.5% and 12.77% and 8.453%
- Change of absorbance, odečet 0 (time 0 subtracted), čas 10, průměr ([5]; sheet IBE 3, time 10 minus time 0, mean (průměr)): -0.00229
- Change of absorbance, odečet 0 (time 0 subtracted), čas 10 ([5]; sheet IBE 3, time 10 minus time 0, single replicates): -0.00147 and -0.00159 and -0.00408 and -0.00649 and -0.00197 and 0.00214
- Change of absorbance, odečet 0 (time 0 subtracted), čas 20, průměr ([5]; sheet IBE 3, time 20 minus time 0, mean (průměr)): -0.00588
- Change of absorbance, odečet 0 (time 0 subtracted), čas 20 ([5]; sheet IBE 3, time 20 minus time 0, single replicates): -0.00984 and -0.00475 and -0.00555 and -0.0054 and -0.00607 and -0.00117
- Change of absorbance, odečet 0 (time 0 subtracted), čas 30, průměr ([5]; sheet IBE 3, time 30 minus time 0, mean (průměr)): -0.01297
- Change of absorbance, odečet 0 (time 0 subtracted), čas 30 ([5]; sheet IBE 3, time 30 minus time 0, single replicates): -0.01562 and -0.01504 and -0.00952 and -0.01694 and -0.01169 and -0.00774
- IC50 values against cancer cells (cancer cells): μM range

Compound: O=C(O)c1ccc(-n2nc(-c3ccccc3O)nc2-c2ccccc2O)cc1 [deferasirox]
- IC50 values against cancer cells (cancer cells): μM range
